A word on the solubility: it is how much of the substance goes into solution per volume.

Type in all cases: physicochemical
Series [1] can be described thus: Vapour sorption experiments (moisture isotherm). The text has this:
The sharp increase is attributed to the condensation of water on the sample holder.

A short description of series [2]: Exposure of Form-II to 50 degrees Celsius at zero and 75% relative humidity (microscopy). The conditions noted are these: 18 days. The text has this:
Form-II was further subjected to a temperature of 50 degrees Celsius at respectively zero (FIG. 3) and 75% relative humidity (FIG. 4) for 18 days.

Series [3] in a line: Chemical stability by HPLC analysis. As to conditions: after solubility test. As for the experimental part:
(§1) The concentrations of the five filtrates of Form-II and roxithromycin raw material respectively are determined by HPLC (high performance liquid chromatography) assay. The HPLC assay is performed utilising a mobile phase of 30 g/L ammonium dihydrogen phosphate buffer at pH 5.3. The pH is adjusted with sodium hydroxide solution and 310 ml of the buffer solution is mixed with 690 ml acetonitrile. A Luna C18 150 mm×4.6 mm column is used with a flow rate of 1.0 ml/min and a wavelength of 205 nm. Validation of this method provides a linear regression r^2 of 0.9998.

Series [4] in a line: Solubility of Form-II and roxithromycin raw material in three media, HPLC assay. As to conditions: for solubility at 24 h: 37 °C, thermodynamic from solid. How it is done: In further analysis of the novel Form-II, five test tubes with 100 mg of Form-II and 10 ml of one of the following solubility mediums respectively, namely, acetate buffer (pH 4.5), phosphate buffer (pH 6.8) and distilled water were filled.
The test tubes are then fixed to a rotating axis (54 rpm) and submerged in a water bath at 37 degrees Celsius±2 degrees Celsius for twenty-four hours. The contents of the test tubes are filtered through a 0.45 μm filter and subsequently the respective filtrates are diluted.
as §1

≈ marks a conversion by molar mass, not a printed value.

Turning to `CC[C@H]1OC(=O)[C@H](C)[C@@H](O[C@H]2C[C@@](C)(OC)[C@@H](O)[C@H](C)O2)[C@H](C)[C@@H](O[C@@H]2O[C@H](C)C[C@H](N(C)C)[C@H]2O)[C@](C)(O)C[C@@H](C)C(=NOCOCCOC)[C@H](C)[C@@H](O)[C@]1(C)O` [Form-II, 3R,4S,5S,6R,7R,9R,11S,12R,13S,14R-6-[(2S,3R,4S,6R)-4-dimethylamino-3-hydroxy-6-methyloxan-2-yl]oxy-14-ethyl-7,12,13-trihydroxy-4-[(2R,4R,5S,6S)-5-hydroxy-4-methoxy-4,6-dimethyloxan-2-yl]oxy-10-(2-methoxyethoxymethoxyimino)-3,5,7,9,11,13-hexamethyl-1-oxacyclotetradecan-2-one], the “increase in weight (moisture isotherm)” value in series [1] (from 70 to 90% RH, attributed to condensation of water on the sample holder) is listed as “up to 4%”; in series [1] (relative humidity up to 60% RH) it was “approximately 1.5%”. Further, in series [1] (from 90 to 0% RH, returned to starting weight), the “weight loss upon decreasing the humidity” value was 4%. In series [1] (vapour sorption up to 90% RH), the “solid state after high levels of moisture” value is reported as “remained amorphous”. The crystallisation result in series [2] (75% relative humidity) and in series [2] (zero relative humidity) was “no crystallisation” in each case. Further, the “chemical stability (HPLC analysis)” value in series [3] is “chemically stable”. The solubility in series [4] (acetate buffer (pH 4.5), 37 degrees Celsius, twenty-four hours) came to 0.76271 ± 0.0026 mg/mL (≈ 911 µM); in series [4] (distilled water, 37 degrees Celsius, twenty-four hours), 0.03286 ± 0.0035 mg/mL (≈ 39.3 µM); in series [4] (phosphate buffer (pH 6.8), 37 degrees Celsius, twenty-four hours), 0.1344 ± 0.0049 mg/mL (≈ 161 µM). In addition, the “more soluble than monohydrated roxithromycin (theoretical solubility of 1.8 μg/ml)” value in series [4] (in water) came to 1798%.
On to `CC[C@H]1OC(=O)[C@H](C)[C@@H](O[C@H]2C[C@@](C)(OC)[C@@H](O)[C@H](C)O2)[C@H](C)[C@@H](O[C@@H]2O[C@H](C)C[C@H](N(C)C)[C@H]2O)[C@](C)(O)C[C@@H](C)/C(=N\OCOCCOC)[C@H](C)[C@@H](O)[C@]1(C)O` [roxithromycin raw material, roxithromycin], for which the solubility at 24 h in series [4] (pH 4.5, aqueous buffer) was 0.37 ± 0.0083 mg/mL (≈ 442 µM); in series [4] (pH 6.8, aqueous buffer), 0.0748 ± 0.0051 mg/mL (≈ 89.4 µM); in series [4] (water) it was 0.0017 ± 0.0006 mg/mL (≈ 2.03 µM). The solubility in series [4] (pH 4.5, aqueous buffer) stood at 0.37 mg/mL (≈ 442 µM); in series [4] (pH 6.8, aqueous buffer), 0.0748 mg/mL (≈ 89.4 µM); in series [4] (water), 0.0018 mg/mL (≈ 2.15 µM).

The record behind these values is patent US8901089B2, “Composition comprising an amorphous non-crystalline glass form of roxithromycin” (North-West University, priority 2009, dated 2014).
